Usually IC50 stands for the concentration at which inhibition is half-maximal. Broadly, the EC50 is the concentration that produces a half-maximal response.

Structures are written as SMILES. Structures can show the parent of a compound that is named as a salt.

Consider two compounds from patent US9067920B2, “Compounds useful for inhibiting Chk1” (Eli Lilly and Company, priority 2010, dated 2015).

In assay [1] the target is recombinant Chk2 protein kinase (Homo sapiens, UniProt O96017). Put plainly: Chk2 biochemical assay (CHK2/substrate peptide filter binding). The conditions noted are these: 60 μM ATP, 1.4 nM Chk2 enzyme. The procedure: The effect of compounds on Chk2 biochemical activity can be determined using a CHK2/substrate peptide filter binding assay. In this assay, a synthetic peptide based on the amino acid sequence residues 206-225 of Cdc25C, is used as a phospho-acceptor substrate for recombinant Chk2 protein kinase. Using γ-^33P-ATP as the phospho-donor substrate, Chk2 transfers the radioactive γ-^33phosphate group to the synthetic peptide. The reaction is measured by capturing the peptide substrate on a cation exchange paper filter plate and scintillation counting of emitted beta particles.
The kinase reactions (40 μL reaction volumes) are performed in 96-well V-bottom polystyrene plates. Reactions are initiated with the addition of Chk2 enzyme. […]
Following Chk2 enzyme addition, the reactions are incubated at room temperature for 90 min, and then terminated with the addition of 140 μL of phosphoric acid. […] After sitting for 4 h at room temperature, the radioactivity in the plate is measured using a MicroBeta Trilux microplate scintillation counter (Perkin Elmer).
For IC50 determination, the percent inhibition for each concentration is calculated using the […] from controls run on each plate. […] Absolute IC50 values are calculated from the resulting curve. […]

A further assay relates to HeLa cells. Put plainly: Doxorubicin-induced G2M checkpoint abrogation HeLa cell-based Acumen assay (pHH3). Conditions: 125 nM doxorubicin, 7 h compound. The procedure:
An inhibitor of Chk1 will disable the G2M DNA damage checkpoint in p53-minus tumor cells treated with the topoisomerase II inhibitor, doxorubicin. A measurement of G2M checkpoint abrogation is the phosphorylation of histone H3 on serine 10 that occurs after cells traverse the G2M checkpoint and enter mitosis. The following high content imaging assay can be used to measure the phosphorylation histone H3 in cells. HeLa cells are cultured in MEM Media supplemented with 10% (v/v) FBS and plated at 2000 cells per well in poly D-lysine coated clear bottom black plates, 100 μL volume per well. Plates are then incubated in a cell culture incubator for 18-24 h (37° C., 5% CO2 and 95% relative humidity), Following the initial incubation, 20 μL of MEM Media plus 10% FBS containing […] doxorubicin are added to the appropriate wells of the plates resulting in a final concentration of 125 nM. The plates are returned to the incubator for 24 h, sufficient to arrest the cells at the G2M checkpoint. The next day the cells are treated 1.0 with compounds. Compounds are solubilized at […] in 100% DMSO and then diluted to a 10× stock starting at 50 μM in MEM plus 4% (v/v) DMSO. Subsequently, serial dilutions of the compounds (1:2) are prepared over a 50 μM to 0.39 μM range. Thirteen μL of compound stock is added to the appropriate wells in the plate to produce a final DMSO concentration of 0.4% and a final compound concentration range between 5 and 0.039 μM. […] Plates are scanned with ACUMEN EXPLORER™ Laser-scanning fluorescence microplate cytometers using 488 nm excitation (TTP LABTECH LTC) to measure pHH3 and DNA content including 2N, and 4N, The pHH3 positive cells are identified by mean intensity at 519 nm from Alexa 488. […] The final readout for each population is determined by normalizing to the % of total cells producing a final assay output of % pHH3, % 2N, and % 4N. 100% activity is then determined by treating cells with the maximum concentration of an inhibitor control compound at 100 nM to determine the final % activity of each compound. […]

For assay [2], the system named is HT-29 colon carcinoma cells. Put plainly: ECtfs (two-fold sensitization) assay, gemcitabine potentiation, MTS. Type of assay: cell-based. The conditions noted are these: Homo sapiens, HT-29 cells. The procedure: An inhibitor of Chk1 can potentiate the anti-proliferative activity of gemcitabine (or other cytotoxics) through abrogation of the intra-S phase checkpoint, resulting in sustained and increased DNA damage. The capacity for continued tumor cell proliferation after DNA damage can be analyzed by determining the ability of cells to replicate their DNA. […] In this assay, cells are treated with a dilution series of gemcitabine, and then 22 h later with the compound of Example 3, After an additional 44 h, the relative cell number is assessed by a MTS (3-(4,5-dimethylthiazol-2-yl)-5-(3-carboxymethoxyphenyl)-2-(4-sulfophenyl)-2H-tetrazolium) dye reduction assay. The ECtfs parameter is a measure of the concentration of a Chk1 inhibitor necessary to reduce by half the (1190 concentration of gemcitabine, measured in this assay in the absence of Chk1 inhibition. HT-29 cells (obtained from ATCC), are grown in RPMI 1640 plus 10% (v/v) heat inactivated FBS, The cells are plated at 2.5×10^3 per well, in a volume of 100 μL on 96-well tissue culture plates and incubated for 24 h. Gemcitabine dilutions are prepared at 6× concentrations in McCoy's 5A medium (modified) (1×) and added to wells at 20 μper well. Gemcitabine dilutions were set up with the highest final concentration of gemcitabine being 1.0 μM and dilutions made by three-fold steps to 0.5 nM.
Chk1 Inhibitor is prepared by dilutions in DMSO to 4000× final concentration, and then diluted 666-fold into McCoy's medium to generate 6× stocks. Chk1 inhibitor dilutions proceed by 2.5-fold steps starting at 25 nM down to 0.3 nM. Twenty-two hours 1.0 after gemcitabine addition, Chk1, inhibitor is added in a volume of 24 μL to wells containing 120 μL of medium plus gemcitabine. Each gemcitabine dilution receives a single Chk1 inhibitor dilution. Control wells received DMSO, gemcitabine, or Chk1 inhibitor alone. Forty-four hours after addition of Chk1 inhibitor, 30 μL of CellTiter 96® AQueous assay reagent, is added to each well and held at room temperature for 1 hour and 45 minutes. Absorbance is read on a SpectraMax 250 (Molecular Devices) spectrophotometer at 490 nm. Data from the SpectraMax spectrophotometer are analyzed with GraphPad Prism 4.0. First, an averaged no cell control absorbance is subtracted from all other values in the matrix of data from each plate. Next, duplicate data points are averaged. Data are normalized for each Chk1 inhibitor concentration, with 0% cell number set as corrected A490=0, and 100% cell number set as the 0 nM gemcitabine mean value. […] Gemcitabine concentrations are converted to log concentrations, and normalized cell number values are converted to percent inhibition (percent inhibition=1.00-normalized value). Transformed data are plotted, and a non-linear regression is run to estimate an IC50 value for gemcitabine at each Chk1 inhibitor concentration. The nonlinear regression is calculated allowing the slope to vary, and without constraints for the top or bottom of the dose-response curves. The ECtfs value is calculated as follows: GI50 values for gemcitabine for each Chk1 inhibitor concentration are determined, plotted, and the concentration of Chk1 inhibitor necessary to decrease the gemcitabine alone GI50 by two-fold is determined by interpolation.
Compounds within the scope of the invention are tested in this assay run substantially as above. For example, the compound of Example 3 is tested and found to have an ECtfs value of 1.0 nM (SE=0.1, n=3). […]

The subject of assay [3] is HT-29 colon tumor xenograft. Description: HT-29 tumor xenograft model, subcutaneous administration of Chk1 inhibitor. It counts as in vivo, nude mice. Conditions: HT29, gemcitabine 60 mpk ip alone. The procedure:
(§1) The ability of Chk1 inhibitors to potentiate tumor killing by DNA damaging agents can be determined in vivo using the Calu-6 lung and HT-29 colon tumor xenograft efficacy models. Calu-6 lung cancer cells are cultured in growth media (MEM with Earle's Balanced Salt Solution with L-glutamine supplemented with 10% (v/v) heat inactivated FBS, 1×MEM non-essential amino acids, 1× sodium pyruvate) and HT-29 colon cancer cells (ATCC) are cultured in growth media, (McCoy's 5A medium supplemented with 10% FBS) and expanded.
(§2) Cells are harvested and washed twice with phosphate buffered saline and 5×10^6 cells (HT-29) or 1×10^6 a cells (Calu-6) in growth media (without serum) are mixed with equal volume of BD Matrigel™ matrix, then injected subcutaneously into the flank of nude mice (CD-1 nu/nu).
(§3) At about day 16 after implant ([…]), gemcitabine is formulated fresh in saline daily and administered to animals by intraperitoneal route at 60 mg/kg dose. Twenty four hours later animals are administered the compound of Example 3, in 0.2% Tween-80/0.5% methylcellulose subcutaneously BID. After […], dosing is repeated for three additional cycles (Q4Dx4 with the compound of Example 3 offset+24 hours), Tumor growth inhibition (TGI) is calculated as the percent reduction in mean tumor size of a compound treated group from the mean tumor size of the vehicle-treated control group. Compounds within the scope of the invention are tested in this assay run substantially as above.

The subject of assay [4] is Calu-6 lung tumor xenograft. Put plainly: Calu-6 tumor xenograft model, subcutaneous administration of Chk1 inhibitor. Type of assay: in vivo, nude mice. Conditions: Calu 6, gemcitabine 60 mpk ip alone. Here is the method:
as §1, §2, §3

In assay [5] the test system is Calu-6 lung tumor xenograft. Put plainly: Calu-6 tumor xenograft model, oral administration of Chk1 inhibitor. Type of assay: in vivo, nude mice. The conditions noted are these: Calu6, gemcitabine 40 mpk ip alone. The procedure:
as §1, §2
(§4) At about day 16 after implant (150-200 mm^3), gemcitabine is formulated fresh in saline daily and administered to animals by intraperitoneal route at 40 mg/kg dose. Twenty four hours later animals are administered Chk1 compound, in 0.2% Tween-80/0.5% methylcellulose by the oral route MD. After three days of rest, dosing was repeated for three additional cycles (Q5Dx4 with the compound of Example 3 offset+24 hours). Tumor growth inhibition (TGI) is calculated as described in the previous paragraph. Compounds within the scope of the invention are tested in this assay run substantially as above.

Assay [6] has as its system HT-29 colon tumor xenograft. Put plainly: HT-29 tumor xenograft model, oral administration of Chk1 inhibitor. Type of assay: in vivo, nude mice. The conditions noted are these: HT29, gemcitabine 40 mpk ip alone. Here is the method: as §1, §2, §4

Chain of recombinant Chk2 protein kinase (O96017 whole entry, the tested form may be a part): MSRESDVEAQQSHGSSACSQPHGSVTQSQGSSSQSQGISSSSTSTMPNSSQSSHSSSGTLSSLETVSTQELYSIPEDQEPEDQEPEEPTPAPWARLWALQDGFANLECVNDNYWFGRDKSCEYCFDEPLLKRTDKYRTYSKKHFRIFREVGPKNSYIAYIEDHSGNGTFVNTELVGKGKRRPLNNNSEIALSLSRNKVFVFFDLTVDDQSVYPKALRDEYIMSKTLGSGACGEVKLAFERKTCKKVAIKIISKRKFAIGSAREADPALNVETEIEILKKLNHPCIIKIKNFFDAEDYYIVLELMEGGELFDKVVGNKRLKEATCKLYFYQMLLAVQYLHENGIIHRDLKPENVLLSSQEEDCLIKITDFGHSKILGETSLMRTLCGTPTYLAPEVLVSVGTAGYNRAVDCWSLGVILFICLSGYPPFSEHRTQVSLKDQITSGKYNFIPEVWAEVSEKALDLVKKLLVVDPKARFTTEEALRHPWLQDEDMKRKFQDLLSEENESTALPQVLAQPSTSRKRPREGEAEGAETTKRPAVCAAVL

With `COc1nc(C)ccc1-c1cc(Nc2cncc(O[C@@H]3CCCNC3)n2)[nH]n1` [Example 2, (R)-[5-(2-Methoxy-6-mcethyl-pyridin-3-yl)-2H-pyrazol-3-yl]-[6-(piperidin-3-yloxy)-pyrazin-2-yl]-amine methane sulfonic acid salt], the IC50 in assay [1] was found to be 12 nM. Also, a half-maximal response in the assay on HeLa cells (EC50) required 33 nM.
For `Nc1ccn([C@@H]2O[C@H](CO)[C@@H](O)C2(F)F)c(=O)n1` [Gemcitabine, gemcitabine, reference compound], the IC50 in assay [2] ([Example 3] 0 nM) is 22 nM. The half-maximal effective concentration (EC50) in assay [2] (gemcitabine alone) was 22 nM. Further, in assay [3], the “% TGI at day 38” value amounted to 11%. The “% TGI at day 47” value in assay [4] is −41%. Moreover, in assay [5], the “% TGI at day 37” value came out at 32%. Further, the “% TGI at day 50” value in assay [6] amounted to 25%.
